In ChEMBL document CHEMBL4433249, “New sensible method to quantize the intestinal absorption of receptor ligands” (Bioorg Med Chem, 2019):

Legend:
[1] = Drug absorption in Wistar rat everted gut sac at 3000 nM; format: ADME, tissue-based, Intestine; settings: 3 µM
[2] = Apparent permeability of the compound across Wistar rat everted gut sac at 3000 nM; format: ADME, tissue-based, Intestine
[3] = (§1) Drug absorption in Wistar rat small intestinal mucosal fluid assessed as displacement of [3H]HEMADO from recombinant human A3 receptor expressed in CHO cells at 10000 nM exposed to mucosal fluid derived from 60 mins compound treated sac followed by further incubation for 3 hrs by scintillation counting based radioligand binding assay; format: cell-based, Mucosa of small intestine; settings: 10 µM
[4] = Drug absorption in Wistar rat small intestinal serosal fluid at 3000 nM incubated for 60 mins by HPLC-DAD analysis; format: ADME; settings: 1 h, 3 µM
[5] = Drug absorption in Wistar rat everted gut sac at 10000 nM; format: ADME, tissue-based, Intestine; settings: 10 µM
[6] = Drug retention in Wistar rat everted gut sac at 1000 nM; format: ADME, tissue-based, Intestine; settings: 1 µM
[7] = Drug retention in Wistar rat everted gut sac at 300 nM; format: ADME, tissue-based, Intestine; settings: 0.3 µM
[8] = Apparent permeability of the compound across Wistar rat everted gut sac at 300 nM; format: ADME, tissue-based, Intestine
[9] = Drug retention in Wistar rat everted gut sac at 3000 nM; format: ADME, tissue-based, Intestine; settings: 3 µM
[10] = Drug absorption in Wistar rat everted gut sac at 1000 nM; format: ADME, tissue-based, Intestine; settings: 1 µM
[11] = as §1, with “serosal” for “mucosal”, “300” for “10000”; format: cell-based; settings: 0.3 µM
[12] = as §1, with “serosal” for “mucosal”, “3000” for “10000”; format: cell-based; settings: 3 µM
[13] = as §1, with “3000” for “10000”; format: cell-based, Mucosa of small intestine; settings: 3 µM
[14] = as §1, with “serosal” for “mucosal”; format: cell-based; settings: 10 µM
[15] = Drug retention in Wistar rat everted gut sac at 10000 nM; format: ADME, tissue-based, Intestine; settings: 10 µM
[16] = as §1, with “serosal” for “mucosal”, “1000” for “10000”; format: cell-based; settings: 1 µM
[17] = Drug absorption in Wistar rat small intestinal serosal fluid at 10000 nM incubated for 60 mins by HPLC-DAD analysis; format: ADME; settings: 1 h, 10 µM
[18] = Apparent permeability of the compound across Wistar rat everted gut sac at 10000 nM; format: ADME, tissue-based, Intestine
[19] = Apparent permeability of the compound across Wistar rat everted gut sac at 1000 nM; format: ADME, tissue-based, Intestine
[20] = as §1, with “1000” for “10000”; format: cell-based, Mucosa of small intestine; settings: 1 µM
[21] = as §1, with “300” for “10000”; format: cell-based, Mucosa of small intestine; settings: 0.3 µM
[22] = Drug absorption in Wistar rat everted gut sac at 300 nM; format: ADME, tissue-based, Intestine; settings: 0.3 µM

Drug absorption [1]: 12.4%
Papp at 3 µM [2]: 8.5 ×10⁻⁶ cm/s
Drug absorption [3]: 2088 nM
Drug absorption [4]: 550 nM
Drug absorption [5]: 11.8%
Drug uptake [6]: 65%
Drug uptake [7]: 44%
Papp at 0.3 µM [8]: 8.5 ×10⁻⁶ cm/s
Drug uptake [9]: 59%
Drug absorption [10]: 11.9%
Drug absorption [11]: 36 nM
Drug absorption [12]: 373 nM
Drug absorption [13]: 857 nM
Drug absorption [14]: 1180 nM
Drug uptake [15]: 67%
Drug absorption [16]: 119 nM
Drug absorption [17]: 2000 nM
Papp at 10 µM [18]: 8.4 ×10⁻⁶ cm/s
Papp at 1 µM [19]: 8.4 ×10⁻⁶ cm/s
Drug absorption [20]: 224 nM
Drug absorption [21]: 133 nM
Drug absorption [22]: 12%
SMILES: CNC(=O)[C@H]1O[C@@H](n2cnc3c(NC)nc(C#Cc4ccccc4)nc32)[C@H](O)[C@@H]1O
